Results as given in patent publication US6723897B2, “Methods for controlling gibberellin levels” (Monsanto Technology, LLC, priority 1998, dated 2004).

Experiments:
[1] = Particulate material present in solutions after mixing; assay type: physicochemical; details: for solubility in water during imbibition: 0.25 mg/ml treatment solutions
Procedure: Each of the compounds noted above is weighed to the nearest 0.1 mg in a pre-tarred 1.5-ml polypropylene vial with a screw-top lid. Absolute ethanol is added to the weighed powder to prepare a 25 mg/ml solution. Solutions are thoroughly mixed using a vortex mixer. A stainless steel spatula is used to crush any particulate material remaining after extensive mixing. Vials are left overnight at room temperature, and then remixed to form the concentrated ethanol stock solutions. The presence of undissolved material is noted throughout this procedure.

[2] = test system: wild-type soybean line A3237; experiment: Experiment II second greenhouse test, seed imbibition, wild-type soybean; assay type: in vivo, Glycine max; details: seeds imbibed 6 hours
Procedure: (The compounds are tested in Experiment I at only one concentration, i.e., 0.25 mg/ml). Test tubes contained […] of ethanol solution per tube. Final volumes are made up to 30 ml with deionized water. After shaking, the treatment solutions (15 ml each) are transferred to each of two 50 ml test tubes. […] Twenty seeds are used in each treatment. Dry seed, ethanol/water-imbibed seed (1% ethanol in water, v/v), and water-imbibed seeds are included as controls. Seeds are imbibed for 6 hours in the test solutions, then planted in bread pans containing Metromix 350 (The Scotts Company, Marysville, Ohio), and covered with 0.5″ Metro-mix. Covered pans are transferred to the greenhouse and subirrigated. Illumination is at a light intensity of 300-400 μmolm^−2s^−1 photosynthetic photon flux; 16 hours light/8 hours dark. Subsequent waterings are also through sub-irrigation until the test is terminated three weeks later. Observations included the number of dwarf, intermediate, and tall plants; plant height; uniformity of rescue; and any visual effects. Digital photographs are also taken.

[3] = test system: constitutively GA-deficient transgenic dwarf soybean line 719; experiment: Field trial of seed coating application rates, GA-deficient soybean; assay type: in vivo, Glycine max; details: seed coating
Procedure: GA3, GA3-3-acetate, GA5, GA9, and GA12 are evaluated in further field trials. […] The objectives of these tests are: 1) to determine if seed coatings, as compared to imbibition, of GA compounds facilitate rescue of constitutively GA-deficient transgenic dwarf soybeans (transgenic lines 719−2 plus 719+17) without causing elongation of wild-type soybeans (line A4922), and 2) to determine the seed treatment rate ranges for each of the selected GA compounds that would provide rescue of constitutively GA-deficient transgenic dwarf soybeans (transgenic lines 719−2 plus 719+17) without causing elongation of wild-type soybeans (line A4922).
Seeds are treated with GA3, GA5, GA9, GA12, and GA3-3-acetate at rates of 0, 0.1, 1, 10, and 100 μg/seed. These GA compounds are applied to the seeds using a Hege 11 seed treater (Hans-Ulrich Hege GmbH & Co., Waldenburg, Germany); 100% acetone is used as the carrier solvent. The amount of liquid introduced into the seed treater is six fluid ounces/100 lbs seed rate. In addition, GA12 is tested at 50 μg/seed. The untreated control (UTC) consisted of dry, untreated seeds. Seeds of constitutively GA-deficient transgenic dwarf soybean line 719 and wild-type A4922 are sown in both light and heavy soil. The planting depth is 0.5 to 1 inch (1.27 to 2.54 cm); watering is via drip irrigation. The experiment is carried out in three repetitions, using 25 seeds/plot (one five foot (152.4 cm) long row) for line 719, and 75 seeds/plot (two eight foot (243.8 cm) rows) for line A4922. Observations included total emergence, number of dwarfs not rescued, uniformity in plant height, average plant height, visual notes, and digital photos.
In all the experiments reported in Tables 17-24, treatments are replicated three times in a randomized block design. Data are analyzed using LSD (least significant difference) 0.05 probability using the PRM 5.0 Statistical Analysis Program (SAS Institute, North Carolina).

[4] = test system: AX5/antisense CPScc soybean line 46 (R2); experiment: Hilum seed treatment of epicotyl-intensive GA-deficient soybean, seedling height (FIG. 42); assay type: in vivo, Glycine max; details: 8 DAP
Procedure: These studies are performed on soybean plants engineered to express their GA-deficient phenotype throughout the life cycle via the use of the constitutive FMV promoter (line 719, FMV/antisense CPScc). In contrast to the constitutive FMV promoter, the peak activity of the AX5 promoter is developmentally restricted to the soybean seedling axis (epicotyl) three to five days after the start of imbibition, with limited expression beyond the seedling stage of development. Soybean lines transformed with the […] cassette therefore display an epicotyl-intensive dwarf phenotype. In these lines, inhibition of the hypocotyl is modest; most of the total height reduction in these plants is due to shortening of the epicotyl. Rescue of […] soybean plants therefore presents different technical challenges from those required for rescue of constitutively GA-deficient transgenic dwarf soybean lines containing the […] construct. […] Seed from both lines is produced from greenhouse-grown plants. […] If multiple applications are made to seeds, the previous application is allowed to dry before a subsequent application is made. […] (29° C.) day and 75° F. night (24° C.). Pots are watered as necessary by overhead hand watering. Hypocotyl and epicotyl measurements are made for each plant at various stages of plant growth. […] The results are shown in FIG. 42, where the error bar represents +/-two times the standard error of the mean (n=12-15). […] The upper dashed horizontal line represents the total height of untreated wild-type […] soybeans. Measurements are made 8 days after planting.

[5] = test system: AX5/antisense CPScc soybean line 234 (R3); experiment: Hilum seed treatment of epicotyl-intensive GA-deficient soybean, height (FIG. 43); assay type: in vivo, Glycine max; details: 10 DAP; for restoration of height of line 234 soybeans: hypocotyl and epicotyl elongation, hypocotyl to epicotyl ratio not maintained; for response of line 234 height: seed treatment rates between 0.1 and 1 μg/seed
Procedure: The purpose of this study is to evaluate the ability of four GA compounds, i.e., GA9, GA5, GA3-3-acetate, and GA12, to restore normal growth in AX5/antisense CPScc soybean lines when applied as a seed treatment.
Line 46 plants are R2; Line 234 plants are R3.
The GA compounds are dissolved in ethanol and applied to the hilum of dry seeds as not more than 10 μl droplets with a syringe. If multiple applications are made to seeds, the previous application is allowed to dry before a subsequent application is made.
Seeds are sown 1 inch deep in commercial potting soil (Metromix 200) in 4-inch plastic pots and placed in a greenhouse set for 12 hours artificial light and a temperature regime of 85° F. (29° C.) day and 75° F. night (24° C.). Pots are watered as necessary by overhead hand watering. Hypocotyl and epicotyl measurements are made for each plant at various stages of plant growth.
The lower dashed horizontal line represents the total height of untreated AX5 line 234 soybeans. The upper dashed horizontal line represents the total height of untreated wild-type A4922 soybeans. Measurements are made 10 days after planting.

C=C1C[C@@]23CC[C@H]4[C@@](C)(CCC[C@@]4(C)C(=O)O)[C@@H]2CC[C@@H]1C3 [kaurenoic acid]
Particulate material present, 100X Diln w/water ([1]; 0.25 mg/ml compound in water): YES | solubility in water during imbibition [1]: less soluble in water during imbibition

C=C1C[C@]23C[C@H]1CC[C@H]2[C@]1(C)CCC[C@@](C)(C(=O)O)[C@H]1[C@@H]3C(=O)O [GA12]
solubility in water during imbibition [1]: less soluble in water during imbibition | Particulate material present, Initial Mixing ([1]; 25 mg/ml in absolute ethanol): YES | Particulate material present, O/N Incubation ([1]; 25 mg/ml in ethanol, overnight at room temperature, remixed): YES | Significant Visual Observations on Line A3237 ([2]; 0.25 mg/ml): Short plants | 719 Height, cm, Heavy soil ([3]; 0.1 μg compound per seed): 4.0 d-i cm | 719 Height, cm, Light soil ([3]; 0.1 μg compound per seed): 4.0 g·cm | No. 719 Emerged, Heavy soil ([3]; 0.1 μg compound per seed): 20.7 a-d | No. 719 Emerged, Light soil ([3]; 0.1 μg compound per seed): 22.3 a | No. 719 Not Rescued, Heavy soil ([3]; 0.1 μg compound per seed): 4.3 bc | No. 719 Not Rescued, Light soil ([3]; 0.1 μg compound per seed): 6.3 b | 719 Height, cm, Heavy soil ([3]; 1 μg compound per seed): 3.3 e-i cm | 719 Height, cm, Light soil ([3]; 1 μg compound per seed): 4.0 g·cm | No. 719 Emerged, Heavy soil ([3]; 1 μg compound per seed): 21.0 abc | No. 719 Emerged, Light soil ([3]; 1 μg compound per seed): 22.0 a | No. 719 Not Rescued, Heavy soil ([3]; 1 μg compound per seed): 5.3 ab | No. 719 Not Rescued, Light soil ([3]; 1 μg compound per seed): 3.7 cd | 719 Height, cm, Heavy soil ([3]; 10 μg compound per seed): 3.0 f-i cm | 719 Height, cm, Light soil ([3]; 10 μg compound per seed): 2.3 cm·h | No. 719 Emerged, Heavy soil ([3]; 10 μg compound per seed): 22.3 ab | No. 719 Emerged, Light soil ([3]; 10 μg compound per seed): 21.0 ab | No. 719 Not Rescued, Heavy soil ([3]; 10 μg compound per seed): 1.7 def | No. 719 Not Rescued, Light soil ([3]; 10 μg compound per seed): 1.7 efg | 719 Height, cm, Heavy soil ([3]; 50 μg compound per seed): 3.3 e-i cm | 719 Height, cm, Light soil ([3]; 50 μg compound per seed): 2.3 cm·h | No. 719 Emerged, Heavy soil ([3]; 50 μg compound per seed): 23.7 a | No. 719 Emerged, Light soil ([3]; 50 μg compound per seed): 22.3 a | No. 719 Not Rescued, Heavy soil ([3]; 50 μg compound per seed): 5.0 bc | No. 719 Not Rescued, Light soil ([3]; 50 μg compound per seed): 3.0 cde | 719 Height, cm, Heavy soil ([3]; 100 μg compound per seed): 2.7 ghi cm | 719 Height, cm, Light soil ([3]; 100 μg compound per seed): 2.0 cm·h | No. 719 Emerged, Heavy soil ([3]; 100 μg compound per seed): 20.7 a-d | No. 719 Emerged, Light soil ([3]; 100 μg compound per seed): 21.3 ab | No. 719 Not Rescued, Heavy soil ([3]; 100 μg compound per seed): 2.0 de | No. 719 Not Rescued, Light soil ([3]; 100 μg compound per seed): 1 | effect on line 46 total height [4]: reduced plant height | line 46 seedling height ([4]; concentrations up to 40 μg/seed): did not increase line 46 seedling height

C=C1C[C@]23C[C@@]1(O)CC[C@H]2[C@@]12C=C[C@H](O)[C@@](C)(C(=O)O1)[C@H]2[C@@H]3C(=O)O [GA3, gibberellic acid]
Significant Visual Observations on Line A3237 ([2]; 0.25 mg/ml): Poor emergence | 719 Height, cm, Heavy soil ([3]; 0.1 μg compound per seed): 5.7 cd cm | 719 Height, cm, Light soil ([3]; 0.1 μg compound per seed): 5.7 ef cm | No. 719 Emerged, Heavy soil ([3]; 0.1 μg compound per seed): 19.7 a-d | No. 719 Emerged, Light soil ([3]; 0.1 μg compound per seed): 21.3 abc | No. 719 Not Rescued, Heavy soil ([3]; 0.1 μg compound per seed): 0 f | No. 719 Not Rescued, Light soil ([3]; 0.1 μg compound per seed): 1 | 719 Height, cm, Heavy soil ([3]; 1 μg compound per seed): 5.3 cde cm | 719 Height, cm, Light soil ([3]; 1 μg compound per seed): 5.7 ef cm | No. 719 Emerged, Heavy soil ([3]; 1 μg compound per seed): 17.3 b-e | No. 719 Emerged, Light soil ([3]; 1 μg compound per seed): 20.7 abc | No. 719 Not Rescued, Heavy soil ([3]; 1 μg compound per seed): 0.3 ef | No. 719 Not Rescued, Light soil ([3]; 1 μg compound per seed): 0 | 719 Height, cm, Heavy soil ([3]; 10 μg compound per seed): 10.3 a cm | 719 Height, cm, Light soil ([3]; 10 μg compound per seed): 11.7 bc cm | No. 719 Emerged, Heavy soil ([3]; 10 μg compound per seed): 18.3 a-e | No. 719 Emerged, Light soil ([3]; 10 μg compound per seed): 21.0 abc | No. 719 Not Rescued, Heavy soil ([3]; 10 μg compound per seed): 0 f | No. 719 Not Rescued, Light soil ([3]; 10 μg compound per seed): 0 | 719 Height, cm, Heavy soil ([3]; 100 μg compound per seed): 9.3 ab cm | 719 Height, cm, Light soil ([3]; 100 μg compound per seed): 13.7 a cm | No. 719 Emerged, Heavy soil ([3]; 100 μg compound per seed): 8.0 f | No. 719 Emerged, Light soil ([3]; 100 μg compound per seed): 16.7 cd | No. 719 Not Rescued, Heavy soil ([3]; 100 μg compound per seed): 0 f | No. 719 Not Rescued, Light soil ([3]; 100 μg compound per seed): 0 | effect on line 46 total height [4]: rescued AX5/asCPScc soybean line 46 total height, with some hypocotyl over-elongation | restoration of height of line 234 soybeans [5]: restore normal height to line 234 soybeans | response of line 234 height [5]: generally similar response

C=C1C[C@]23C[C@@]1(O)CC[C@H]2[C@@]12CC=C[C@@](C)(C(=O)O1)[C@H]2[C@@H]3C(=O)O [GA5]
Significant Visual Observations on Line A3237 ([2]; 0.025 mg/ml): Normal height | 719 Height, cm, Heavy soil ([3]; 0.1 μg compound per seed): 5.0 def cm | 719 Height, cm, Light soil ([3]; 0.1 μg compound per seed): 4.3e-15 g·cm | No. 719 Emerged, Heavy soil ([3]; 0.1 μg compound per seed): 22.0 ab | No. 719 Emerged, Light soil ([3]; 0.1 μg compound per seed): 21.7 ab | No. 719 Not Rescued, Heavy soil ([3]; 0.1 μg compound per seed): 1.7 def | No. 719 Not Rescued, Light soil ([3]; 0.1 μg compound per seed): 4.3 c | 719 Height, cm, Heavy soil ([3]; 1 μg compound per seed): 4.7 g·cm·days | 719 Height, cm, Light soil ([3]; 1 μg compound per seed): 6.3 e cm | No. 719 Emerged, Heavy soil ([3]; 1 μg compound per seed): 21.0 abc | No. 719 Emerged, Light soil ([3]; 1 μg compound per seed): 22.7 a | No. 719 Not Rescued, Heavy soil ([3]; 1 μg compound per seed): 0.7 ef | No. 719 Not Rescued, Light soil ([3]; 1 μg compound per seed): 0 | 719 Height, cm, Heavy soil ([3]; 10 μg compound per seed): 7.3 bc cm | 719 Height, cm, Light soil ([3]; 10 μg compound per seed): 11.3 bc cm | No. 719 Emerged, Heavy soil ([3]; 10 μg compound per seed): 20.0 a-d | No. 719 Emerged, Light soil ([3]; 10 μg compound per seed): 20.0 a-d | No. 719 Not Rescued, Heavy soil ([3]; 10 μg compound per seed): 0.3 ef | No. 719 Not Rescued, Light soil ([3]; 10 μg compound per seed): 0.7 | 719 Height, cm, Heavy soil ([3]; 100 μg compound per seed): 9.0 ab cm | 719 Height, cm, Light soil ([3]; 100 μg compound per seed): 12.0 b cm | No. 719 Emerged, Heavy soil ([3]; 100 μg compound per seed): 12.3 ef | No. 719 Emerged, Light soil ([3]; 100 μg compound per seed): 14.3 f | No. 719 Not Rescued, Heavy soil ([3]; 100 μg compound per seed): 0 f | No. 719 Not Rescued, Light soil ([3]; 100 μg compound per seed): 0 | effect on line 46 total height [4]: rescued AX5/asCPScc soybean line 46 total height, with some hypocotyl over-elongation | restoration of height of line 234 soybeans [5]: restore normal height to line 234 soybeans | response of line 234 height [5]: generally similar response
